Assay results published in patent publication US11286236B2, “Compound, agent and composition for the suppression of cancer growth” (Vector Vitale IP LLC, priority 2018, dated 2022).
Structures can show the parent of a compound that is named as a salt.

Tested on: Ehrlich ascites carcinoma
Experiment: In vivo antitumor activity against Ehrlich ascites carcinoma
Parameters: species or system mouse
Protocol: Outbred mice were administered Ehrlich ascites carcinoma cells (EAC) intraperitoneally (IP) at a dose of 2.5×10^5 cells in 0.25 ml of normal saline solution. The compounds under study, 1)^85RbeE2, was dissolved in deuterium-depleted water and 2) Cisplatin (Teva, the Netherlands), was dissolved in normal saline solution. The drugs were administered starting from the first day after mice were inoculated with tumor cells, using a microinjection syringe, at the following doses: 1)^85Rbe-E2 at a dose of 750 μg/mouse (weighing 20 g) in a volume of 0.3 ml as 3 IP injections (1 injection—250 μg/mouse) on the 1st, 4th and 7th day of the experiment; 2) Cisplatin at a dose of 4.5 mg/kg or 1.5 mg/kg as 3 IP injections on the 2nd, 5th and 8th day of the experiment. The dynamics of tumor growth in the experimental animals was observed (based on the volume of ascites in the peritoneal cavity) after the tumor cell inoculation and for 31 days of the experiment. On the 15th and 22nd day after IP administration of tumor cells, all the fluid accumulated in each animal's abdomen was extracted and the total number of live/dead cells in each mouse was determined. In addition, some mice were used to assess a survival rate of animals in the experiment.
Laboratory animals. 84 outbred female 10 to 12-week old mice weighing 22-26 g were used in the experimental study. The animals were obtained from the animal vivarium at R.E. Kavetsky IEPOR NASU. […] The animals were maintained in plastic cages, under natural light-dark cycles, fed standard food and allowed free access to food and tap water.
Tumor model. Ascites strain of Ehrlich ascites carcinoma maintained on outbred mice obtained from the cell and tissue line bank at R.E. Kavetsky IEPOR NASU was used in the experiment. To prepare the strain for injection, tumor cells derived from ascitic fluid were placed in normal saline solution and cellularity of the suspension was assessed in a hemocytometer and adjusted to a concentration of 1·10^6 cells/ml with saline solution. The tumor cells were inoculated by injecting 250 mcl of cell suspension from the tumor (0.25×10^6 cells/mouse) into the peritoneal cavity of laboratory animals.
The drugs were administered IP every other day, using a microinjection syringe, at doses specified above as a series of 3 injections of each compound according to the following scheme: ^85Rbe-E2 at a dose of 250 μg/mouse weighing 20 g+CP at a dose of […] 24 hours later (for groups (EAC+CP(4.5)) and (EAC+^85Rbe-E2+CP(4.5)) or […] (for groups (EAC+CP(1.5)) and (EAC+^85Rbe-E2+CP(1.5)) in a volume of 0.25 ml of saline solution (6 injections in total during 8 days).
The tumor growth dynamics in the laboratory animals was observed by daily control of the volume of ascitic fluid in the abdominal cavity of mice starting from the tumor inoculation and for 31 days of the experiment. The dynamics of ascites growth both in control and experimental groups was assessed visually using a 10-point scale, where 0 points were the absence of tumor growth and 10 points were the maximum increase in the size of the abdomen of the mouse with ascites (one point was 0.6 cm of the mean diameter of the mouse abdomen filled with the fluid).
Furthermore, on the 15th and 22nd day after intraperitoneal injection of tumor cells, all ascitic fluid was removed from the abdomen in 2 or 3 animals from each group by washing their peritoneal cavity with saline solution, and live/dead EAC cells were counted in each mouse using the traditional vital dye trypan blue (HyClon, USA) and a hemocytometer.
X=((a)/80)×10^6, where X is the number of cells in 1 ml and a is the number of cells counted in 5 large diagonal squares of the hemocytometer.
7 or 8 mice from each group were used to assess their survival in the experiment. The total lifespan observation time was 31 days from the moment of inoculation of tumor cells.
Statistical data processing. […]

[1] = 85Rbe-E2 750 μg/mouse IP total, alone, 14 mice per group
[2] = Day 15, 85Rbe-E2 750 μg/mouse IP total, alone
[3] = Day 22, 85Rbe-E2 750 μg/mouse IP total, alone
[4] = day 15, 85Rbe-E2 750 μg/mouse IP total, alone
[5] = day 17, 85Rbe-E2 750 μg/mouse IP total, alone
[6] = day 22, 85Rbe-E2 750 μg/mouse IP total, alone
[7] = day 24, 85Rbe-E2 750 μg/mouse IP total, alone
[8] = day 27, 85Rbe-E2 750 μg/mouse IP total, alone
[9] = day 29, 85Rbe-E2 750 μg/mouse IP total, alone
[10] = day 31, 85Rbe-E2 750 μg/mouse IP total, alone

SMILES: Cc1ccc(S(=O)(=O)Nc2ccccc2NC(=O)c2ccccc2)cc1 [^85Rbe − E2, ^85Rb-enriched rubidium salt of N-benzoyl-N′-(4-toluenesulfonyl)-o-phenylenediamine]
- Animals without tumor, % (85Rbe-E2 750 μg/mouse IP total, alone): 0%
- Number of animals in the group with tumor [1]: 14
- Number of animals in the group without tumor [1]: 0
- Last day with statistically significant inhibition of EAC growth vs control (85Rbe-E2 alone): 15 days
- Suppression of carcinoma growth vs control, average (85Rbe-E2 alone, by the 15th day after inoculation): 18%
- Number of dead cells/mouse, % [2]: 4.3 ± 1.5%
- Number of live cells/mouse, ×10^6 (M ± m) [2]: 1917 ± 408 ×10^6
- Volume of ascites [2]: 6.5 ± 2.9 mL
- Number of dead cells/mouse, % [3]: 15.4 ± 3.6%
- Number of live cells/mouse, ×10^6 (M ± m) [3]: 2062 ± 438 ×10^6
- Volume of ascites [3]: 16.4 ± 4.8 mL
- Survival, percent of mice (day 0, 85Rbe-E2 750 μg/mouse IP total, alone): 100%
- Size of mouse abdomen, points (day 9, 85Rbe-E2 750 μg/mouse IP total, alone): 4.4 ± 0.2 points
- Size of mouse abdomen, points (day 13, 85Rbe-E2 750 μg/mouse IP total, alone): 6 ± 0.3 points
- Size of mouse abdomen, points [4]: 6.5 ± 0.3 points
- Survival, percent of mice [4]: 100%
- Size of mouse abdomen, points [5]: 8 ± 0.6 points
- Survival, percent of mice [5]: 85.7%
- Survival, percent of mice (day 19, 85Rbe-E2 750 μg/mouse IP total, alone): 85.7%
- Size of mouse abdomen, points (day 20, 85Rbe-E2 750 μg/mouse IP total, alone): 9 ± 0.4 points
- Size of mouse abdomen, points [6]: 9.5 ± 0.4 points
- Survival, percent of mice [6]: 85.7%
- Size of mouse abdomen, points [7]: 10 points
- Survival, percent of mice [7]: 85.7%
- Survival, percent of mice (day 25, 85Rbe-E2 750 μg/mouse IP total, alone): 71%
- Survival, percent of mice (day 26, 85Rbe-E2 750 μg/mouse IP total, alone): 71%
- Size of mouse abdomen, points [8]: 10 points
- Survival, percent of mice [8]: 57%
- Survival, percent of mice (day 28, 85Rbe-E2 750 μg/mouse IP total, alone): 43%
- Size of mouse abdomen, points [9]: 10 points
- Survival, percent of mice [9]: 29%
- Size of mouse abdomen, points [10]: 10 points
- Survival, percent of mice [10]: 14%
- Effect on the survival rate of mice (series of IP injections of 85Rbe-E2 alone): did not have a significant effect
